The subject of the assay is Caco-2 cells. In words: Cellular uptake study (flow cytometry, confocal microscopy). The note with it: Caco-2 monolayer, 0.5 h incubation, 200 ng/mL coumarin-6 equivalent. In kind it is cell-based, Human. The protocol: Caco-2 cell monolayers approximately 21-24 days post seeding were used for the cellular uptake study. Before the experiments, the monolayers were washed with HBSS (pH 7.4) twice and then preincubated with HBSS at 37° C. for 30 min. The HBSS (control), free coumarin-6 solution (200 ng/mL), ERSNPs-C6 or PLGANPs-C6 suspension in HBSS equivalent to 200 ng/mL of coumarin-6 were added in the donor compartment while 3 mL of HBSS was added in the receiver compartment. These Caco-2 cell monolayers were incubated for 0.5 h and 1 h at 37° C. in an atmosphere of 5% CO2 and 90% relative humidity. The flow cytometry and confocal microscopy were used to assess the intracellular fluorescence. After 0.5 h and 1 h of incubation, the cell monolayers were washed with phosphate buffered saline (PBS, pH 7.4) three times following by trypsinization for 5 min (100 μL, 0.25% trypsin EDTA). Trypsinization was stopped by adding 1 mL of cold PBS. Cells were detached from the inserts by pipetting and centrifuged at 1000 rpm for 5 min The cells were resuspended in 2 mL PBS and analyzed by using fluorescent activated flow cytometry (BD FACS Calibur) and BD CellQuest software (BD Biosciences, NJ, USA). This experiment was performed in triplicate.
For confocal microscopic study, after 0.5 hours of incubation at 37° C., cell monolayer was washed with PBS three times. […]
Background: Flow cytometry measures light scatter and fluorescence of single cells or particles in a stream.

As to `CCN(CC)c1ccc2cc(-c3nc4ccccc4s3)c(=O)oc2c1` [coumarin-6, Coumarin-6], the “cellular uptake efficiency (fluorescence intensity of cells)” value is given as 1.27±0.3%.
